Like-named read-outs stand apart in the source and are kept apart here. Marks after values point to notes of the source that are not given here.
Experiments:
[1] = tested on: alpha2-adrenergic receptors; details: cited from earlier work
radiation dermatitis = details: topical, applied up to 20 minutes before radiotherapy; cited from earlier work
[2] = Description: (§1) Saturated solutions were prepared by adding an excess of drug substance to various solvents and storing the samples in sealed containers for 24 hours at room temperature with continuous stirring.
The majority of the samples were stirred using a magnetic stirrer; however, in the case of viscous samples (such as pure glycerine), the samples were stirred using a rotary mixer. The speed of the rotary mixer was adjusted to ensure proper mixing of the sample, this generally involving slower rotation speeds.
(§2) After the equilibration period, samples were centrifuged or filtered and the brimonidine tartrate was quantified using the Thermo Scientific Dionex U3000 UPLC-UV system. The chromatographic conditions are described below: • Column: Sunfire C18 150 mm×4.6 mm, 3.5 μm • Temperature of column: 40° C. • Volume injected: […] • Flow: 0.8 ml/minute • UV detection: 246 nm

[3] = remark: listed apart in the source
Description: as §1, §2
Saturated solutions were prepared, incubated and measured as described in Example 1.

[4] = value as per literature (ALPHAGAN Product Monograph), conditions not specified, cited from earlier work

## Brc1c(NC2=NCCN2)ccc2nccnc12 [Brimonidine]
[1]
  selectivity for alpha2-adrenergic receptors over alpha1-adrenergic receptors: 1,000 times

## CNC[C@H](O)c1ccc(O)c(O)c1 [epinephrine]
Radiation dermatitis
  patients showing a significant benefit: 50%

## brimonidine tartrate
[2]; in ARLASOLVE DMI, 24 hours, room temperature
  Max solubility: 0.01 % (w/w)
[2]; in DMSO, visual solubility, UPLC-UV not performed
  Max solubility: >8.5*** % (w/w)
[2]; in GLUCAM E10, 24 hours, room temperature
  Max solubility: 0.72* % (w/w)
[2]; in GLUCAM E20, 24 hours, room temperature
  Max solubility: 0.88* % (w/w)
[2]; in Glycerine (GLY, 20 ml scintillation flask)
  Max solubility: 1.61 % (w/w)
[2]; in Hexylene Glycol, 24 hours, room temperature
  Max solubility: 0.01 % (w/w)
[2]; in Na Pyrrolidone Carboxylate (AJIDEW L50), 24 hours, room temperature
  Max solubility: 0.06 % (w/w)
[2]; in PEG-400, 24 hours, room temperature
  Max solubility: 0.10 % (w/w)
[2]; in Propylene Carbonate, 24 hours, room temperature
  Max solubility: 0.01** % (w/w)
[2]; in Propylene glycol, measured value
  Max solubility: 0.56 % (w/w)
[2]; in TRANSCUTOL, 24 hours, room temperature
  Max solubility: 0.05 % (w/w)
[2]; in WATER, measured value
  Max solubility: 6.40 % (w/w)
[3]; PG/PEG-400/GLY/PVP (20:10:5:1) vs PG/PEG-400/GLY/PVP/water (20:10:5:1:40)
  active agent solubilised by non-volatile mixture compared to the aqueous mixture: approximately 22%
[3]; concentration of 1% brimonidine tartrate
  saturation in the aqueous solvent phase of the primary formulation: around 30%
[3]; concentration of 1.5% brimonidine tartrate
  saturation in the aqueous solvent phase of the primary formulation: ~50%
[3]; in PG/PEG-400 (20:10)
  Max solubility: 0.45 % (w/w)
[3]; in PG/PEG-400/GLY (20:10:5)
  Max solubility: 0.66 % (w/w)
[3]; in PG/PEG-400/GLY/PVP (20:10:5:1)
  Max solubility: 0.72 % (w/w)
[3]; in PG/PEG-400/GLY/PVP/Water (20:10:5:1:40)
  Max solubility: 3.3 % (w/w)
[3]; in PG/PEG-400/PVP (20:10:1)
  Max solubility: 0.45 % (w/w)
[4]; in Propylene glycol
  Max solubility: ~0.1**** % (w/w)
[4]; in WATER
  Max solubility: 3.4**** % (w/w)
